Values of other authors, collected in patent US20210128691A1 (priority 2019, published 2021).

Columns and labels:
[1] = system: cyclic nucleotide PDE; details: rats made hypothyroid with increased PDE activity
[2] = in vivo
[3] = system: pre-eclampsia; details: dietary supplements, high risk patients

N[C@@H](Cc1cc(I)c(Oc2ccc(O)c(I)c2)c(I)c1)C(=O)O [T3, L-tri-iodothyronine]
time to peak levels following ingestion: one to two
rise of serum concentration (amount of drug in circulation) (following ingestion): 250% to 600
PDE activity after administration [1]: returned to normal

N[C@@H](Cc1cc(I)c(Oc2cc(I)c(O)c(I)c2)c(I)c1)C(=O)O [T4, L-thyroxine]
half-life [2]: 120 to 170 h

N=C(N)NCCC[C@H](N)C(=O)O [L-arginine]
incidence of PE [3]: significantly reduce, but not eliminate

CN1CC(=O)N2[C@H](c3ccc4c(c3)OCO4)c3[nH]c4ccccc4c3C[C@@H]2C1=O [tadalafil]
half-life [2]: 17 to 18 h
